# Paper PMC6530907 (Biochemistry, 2019)
# What was measured:
# H10MbtA^opt = H10MbtA^opt (Mycobacterium tuberculosis, UniProt P71716); type: biochemical
# MbtAtb (H10MbtA^opt) [1] = molecular target: T1, MbtAtb (H10MbtA^opt) (Mycobacterium tuberculosis, UniProt P71716); type: biochemical
# Msm ΔEM-pMbtAtb = assay: microbe, parasite or virus in culture; type: cell-based, Mycobacterium smegmatis; details: for MIC potency compared to 1 (decrease): Fe-limiting media
# Mtb [2] = details: cited from earlier work
# MbtAtb = details: cited from earlier work; for Ki: read-out: Kiapp
# MbtAtb (H10MbtA^opt) [3] = molecular target: T1, MbtAtb (H10MbtA^opt); type: biochemical; details: Kiapp increased linearly with [S]
# PPT-PNP coupling system = type: biochemical
# Msm WT = assay: Growth inhibition assay; type: cell-based, Mycobacterium smegmatis; details: GASTD+Fe medium
# Msm ΔE = assay: microbe, parasite or virus in culture; type: cell-based, Mycobacterium smegmatis; details: GASTD medium (Fe-limiting)
# Msm ΔM = type: cell-based, Mycobacterium smegmatis; details: GASTD+Fe medium
# Mtb [4] = details: monotherapy at 5.6 or 16.7 mg/kg; cited from earlier work
# [5] = mouse; cited from earlier work
# mammalian cells = details: cited from earlier work
# MbtAtb (H10MbtA^opt) [6] = molecular target: T1, MbtAtb (H10MbtA^opt); type: biochemical; details: read-out: IC50 (H10MbtA^opt-dependent signal, salicyl-AMS fragments)
# T1 sequence (P71716 whole entry, looked up): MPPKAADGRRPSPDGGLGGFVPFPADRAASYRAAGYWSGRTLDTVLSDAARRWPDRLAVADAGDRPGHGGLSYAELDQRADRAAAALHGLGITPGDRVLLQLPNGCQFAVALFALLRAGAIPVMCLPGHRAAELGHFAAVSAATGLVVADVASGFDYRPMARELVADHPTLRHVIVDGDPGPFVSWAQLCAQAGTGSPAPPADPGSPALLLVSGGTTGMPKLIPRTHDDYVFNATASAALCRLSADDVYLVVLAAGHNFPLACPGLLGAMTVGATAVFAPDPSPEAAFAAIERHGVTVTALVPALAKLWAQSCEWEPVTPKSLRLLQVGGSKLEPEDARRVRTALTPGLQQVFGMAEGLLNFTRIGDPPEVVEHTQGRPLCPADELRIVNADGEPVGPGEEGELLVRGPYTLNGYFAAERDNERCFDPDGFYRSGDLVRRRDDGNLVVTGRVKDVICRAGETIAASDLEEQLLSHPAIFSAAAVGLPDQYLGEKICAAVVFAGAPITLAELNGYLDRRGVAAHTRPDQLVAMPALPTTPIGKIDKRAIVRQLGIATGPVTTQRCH
# Chain of H10MbtA^opt (P71716 whole entry, looked up): as above
molecule,measurement,setting,value
Nc1ncnc2c1ncn2[C@@H]1O[C@H](COP(=O)(O)OP(=O)(O)OP(=O)(O)O)[C@@H](O)[C@H]1O [ATP],KmATP,H10MbtA^opt,13.0 ± 1.3 µM
same,kcatsal (ATP as the variable substrate),H10MbtA^opt,0.0193 ± 0.00067 s⁻¹
salicyl-AMSNMe [4b],improvement in Kiapp of 4b versus 4a,MbtAtb (H10MbtA^opt) [1],0.5 fold
same,MIC potency compared to 1 (decrease),Msm ΔEM-pMbtAtb,indistinguishable
"O=C(NS(=O)(=O)OCC1OC(n2cnc3c(=O)[nH]cnc32)C(O)C1O)c1ccccc1O (stereo not shown) [compound 11, salicyl-IMS]",Mtb MIC,Mtb [2],> 100 µM
same,Ki,MbtAtb,0.8 µM
"Nc1ncnc2c1ncn2[C@H]1C[C@H](O)[C@@H](COS(=O)(=O)NC(=O)c2ccccc2O)O1 [compound 2, salicyl-2´-dAMS]",worsening of the kinetic parameters relative to salicyl-AMS (1),MbtAtb (H10MbtA^opt) [1],≤ 2 fold
same,MIC potency compared to 1 (decrease),Msm ΔEM-pMbtAtb,6 fold
same,decrease in Kiapp relative to salicyl-AMS (1),MbtAtb; ATP-PPi assay,0.5 fold
"COc1ncnc2c1ncn2[C@@H]1O[C@H](CNS(=O)(=O)NC(=O)c2ccccc2O)[C@@H](O)[C@H]1O [compound 6, salicyl-6-MeO-AMSN]",Kiapp higher than that of salicyl-AMS (1),MbtAtb (H10MbtA^opt) [1],10 fold
same,decrease in tR compared with salicyl-AMS (1),MbtAtb (H10MbtA^opt) [1],≈ 0.5 fold
same,increase in koff compared with salicyl-AMS (1),MbtAtb (H10MbtA^opt) [1],≈ 2 fold
same,konapp lower than that of salicyl-AMS (1),MbtAtb (H10MbtA^opt) [1],6 fold
same,MIC potency compared to 1 (decrease),Msm ΔEM-pMbtAtb,6 fold
"Nc1ncnc2c1ncn2[C@@H]1O[C@H](COS(=O)(=O)NC(=O)c2ccccc2O)[C@@H](O)[C@H]1O [compound 1, 5´-O-[N-salicylsulfamoyl]adenosine]",inhibition mechanism with respect to both MbtAtb substrates,MbtAtb (H10MbtA^opt) [3],competitive inhibition mechanism
same,mechanism of inhibition (kobs vs inhibitor concentration),MbtAtb (H10MbtA^opt) [1]; linear kobs vs [I],"static, slow-onset mechanism of inhibition"
same,effect on the PPT-PNP coupling system,PPT-PNP coupling system,did not affect
same,MIC,Msm WT,>1000 µg/mL
same,MIC,Msm ΔE,0.5 to 1 µg/mL
same,MIC,Msm ΔE; Mycolicibacterium smegmatis,0.5 to 1 µg/mL
same,MIC,Msm ΔM,>1000 µg/mL
same,MIC,"Msm ΔEM-pMbtAtb; GASTD medium (Fe-limiting), listed as salicyl-AMS",0.5 to 1.0 µg/mL
same,MIC,Msm ΔEM-pMbtAtb; GASTD+Fe medium (Fe-rich),"> 1,000 µg/ml"
same,MIC,"Msm ΔEM-pMbtAtb; Mycolicibacterium smegmatis, GASTD medium (Fe-limiting)",0.5 to 1 µg/mL
same,MIC,"Msm ΔEM-pMbtAtb; Mycolicibacterium smegmatis, GASTD+Fe medium (Fe-rich)",> 1000 µg/mL
same,MIC,"Mtb [2]; Fe-limiting medium, comparable inoculum",0.1 to 0.5 µg/mL
same,Mtb growth in the mouse lung,Mtb [4],significant reduction of Mtb growth in the mouse lung
same,doses with in vivo toxicity,[5],≥ 16.7 mg/kg
same,cytotoxicity against mammalian cells,mammalian cells,not cytotoxic
"Nc1nc(Nc2ccccc2)nc2c1ncn2C1OC(COS(=O)(=O)NC(=O)c2ccccc2O)C(O)C1O (stereo not shown) [3b, salicyl-2-NHPh-AMS]",MIC potency compared to 1 (decrease),Msm ΔEM-pMbtAtb,no statistically significant difference
"CNc1ncnc2c1ncn2[C@@H]1O[C@H](COS(=O)(=O)NC(=O)c2ccccc2O)[C@@H](O)[C@H]1O [5a, salicyl-6-N-Me-AMS]",Kiapp higher than that of salicyl-AMS (1),MbtAtb (H10MbtA^opt) [1],≈ 5.5 fold
same,decrease in tR compared with salicyl-AMS (1),MbtAtb (H10MbtA^opt) [1],≈ 0.5 fold
same,increase in koff compared with salicyl-AMS (1),MbtAtb (H10MbtA^opt) [1],≈ 2 fold
same,konapp lower than that of salicyl-AMS (1),MbtAtb (H10MbtA^opt) [1],≈ 2.5 fold
same,MIC potency compared to 1 (decrease),Msm ΔEM-pMbtAtb,no statistically significant difference
O=C(O)c1ccccc1O [salicylic acid],Kmsal,H10MbtA^opt,0.31 ± 0.003 µM
"Nc1nc(-c2ccccc2)nc2c1ncn2C1OC(COS(=O)(=O)NC(=O)c2ccccc2O)C(O)C1O (stereo not shown) [3a, salicyl-2-Ph-AMS]",MIC potency compared to 1 (decrease),Msm ΔEM-pMbtAtb,no statistically significant difference
"Nc1ncnc2c1ncn2[C@@H]1O[C@H](CNS(=O)(=O)NC(=O)c2ccccc2O)[C@@H](O)[C@H]1O [4a, salicyl-AMSN]",MIC potency compared to 1 (decrease),Msm ΔEM-pMbtAtb,no statistically significant difference
"O=C(NS(=O)(=O)OC[C@H]1O[C@@H](n2cnc3c(NC4CC4)ncnc32)[C@H](O)[C@@H]1O)c1ccccc1O [5b, salicyl-6-N-c-Pr-AMS]",Kiapp higher than that of salicyl-AMS (1),MbtAtb (H10MbtA^opt) [1],≈ 5.5 fold
same,decrease in tR compared with salicyl-AMS (1),MbtAtb (H10MbtA^opt) [1],≈ 0.5 fold
same,increase in koff compared with salicyl-AMS (1),MbtAtb (H10MbtA^opt) [1],≈ 2 fold
same,konapp lower than that of salicyl-AMS (1),MbtAtb (H10MbtA^opt) [1],≈ 2.5 fold
same,MIC potency compared to 1 (decrease),Msm ΔEM-pMbtAtb,6 fold
"O=C(NS(=O)(=O)O)c1ccccc1O [compound 8, salicyl-sulfamate]",IC50,MbtAtb (H10MbtA^opt) [6],~1000 µM
"CN(C)c1ncnc2c1ncn2C1OC(COS(=O)(=O)NC(=O)c2ccccc2O)C(O)C1O (stereo not shown) [compound 12, salicyl-6-N,N-diMe-AMS]",Mtb MIC,Mtb [2],50 µM
same,Ki,MbtAtb,0.38 µM
